{"source": "paper PMC8704367", "about": "“Systematic Analysis and Biochemical Characterization of the Caffeoyl Shikimate Esterase Gene Family in Poplar” (International Journal of Molecular Sciences, 2021)", "format_in_all_cases": "biochemical", "key": {"PoptoHCT6": {"target": "T1, PoptoHCT6 (Populus tomentosa, UniProt A0A0S1VWY1)", "T1 construct": "gene HCT6; cloned from cambial zone cDNA into pET28a, His-tagged, E. coli BL21(DE3), Ni-NTA", "T1 sequence (A0A0S1VWY1 1-431)": "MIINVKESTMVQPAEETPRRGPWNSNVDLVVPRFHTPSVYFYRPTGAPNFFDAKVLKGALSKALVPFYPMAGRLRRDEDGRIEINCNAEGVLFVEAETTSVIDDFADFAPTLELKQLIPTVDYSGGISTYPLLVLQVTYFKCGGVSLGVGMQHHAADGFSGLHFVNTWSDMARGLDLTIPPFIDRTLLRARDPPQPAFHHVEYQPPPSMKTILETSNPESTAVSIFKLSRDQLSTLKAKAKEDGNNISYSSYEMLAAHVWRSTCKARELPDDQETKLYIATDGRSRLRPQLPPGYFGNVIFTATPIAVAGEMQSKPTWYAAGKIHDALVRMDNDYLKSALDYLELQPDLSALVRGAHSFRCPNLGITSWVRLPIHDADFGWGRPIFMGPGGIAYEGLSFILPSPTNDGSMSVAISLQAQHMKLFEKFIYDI", "test": "preparative enzymatic synthesis of caffeoyl shikimate"}, "PoptoCSE1": {"target": "T2, PoptoCSE1 (Populus tomentosa, UniProt A0A0S1VWX4)", "T2 construct": "gene CSE1; full-length CDS cloned from cambial zone cDNA into pET28a, His-tagged, E. coli BL21(DE3), Ni-NTA", "T2 sequence (A0A0S1VWX4 1-326)": "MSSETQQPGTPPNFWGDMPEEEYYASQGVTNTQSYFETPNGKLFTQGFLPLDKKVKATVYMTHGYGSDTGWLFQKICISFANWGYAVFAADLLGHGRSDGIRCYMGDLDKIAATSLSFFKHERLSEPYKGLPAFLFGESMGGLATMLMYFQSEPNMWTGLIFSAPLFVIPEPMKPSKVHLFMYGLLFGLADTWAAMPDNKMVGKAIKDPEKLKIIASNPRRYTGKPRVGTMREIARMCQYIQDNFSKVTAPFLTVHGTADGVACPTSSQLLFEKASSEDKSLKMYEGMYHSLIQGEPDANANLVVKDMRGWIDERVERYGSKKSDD", "test": "HPLC-MS, appearance of caffeic acid", "conditions": "100 uM substrate, 100 mM sodium phosphate pH 7.5, 0.5 mM DTT, 30 C; substrate made enzymatically with PoptoHCT6"}, "PoptoCSE2": {"target": "T3, PoptoCSE2 (Populus tomentosa, UniProt A0A0S1VWZ0)", "T3 construct": "gene CSE2; full-length CDS cloned from cambial zone cDNA into pET28a, His-tagged, E. coli BL21(DE3), Ni-NTA", "T3 sequence (A0A0S1VWZ0 1-326)": "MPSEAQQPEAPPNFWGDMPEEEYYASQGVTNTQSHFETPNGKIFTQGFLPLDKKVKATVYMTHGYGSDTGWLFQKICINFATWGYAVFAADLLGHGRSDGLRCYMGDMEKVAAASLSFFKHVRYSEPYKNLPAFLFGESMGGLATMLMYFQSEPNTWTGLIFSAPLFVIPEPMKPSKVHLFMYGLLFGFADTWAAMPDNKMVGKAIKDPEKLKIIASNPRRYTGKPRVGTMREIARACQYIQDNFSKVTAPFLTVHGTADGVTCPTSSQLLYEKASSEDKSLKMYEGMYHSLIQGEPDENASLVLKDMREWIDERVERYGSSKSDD", "test": "HPLC-MS, appearance of caffeic acid", "conditions": "100 uM substrate, 100 mM sodium phosphate pH 7.5, 0.5 mM DTT, 30 C; substrate made enzymatically with PoptoHCT6"}}}
{"smiles": "O=C(O)C1=C[C@@H](O)[C@@H](O)[C@H](O)C1", "note": "[shikimic acid]", "values": [{"measurement": "preparative enzymatic synthesis of caffeoyl shikimate", "setting": "PoptoHCT6; co-substrate caffeoyl-CoA", "result": "caffeoyl shikimate using enzymatic reaction catalyzed by purified recombinant PoptoHCT6 with caffeoyl-CoA and shikimic acid"}]}
{"smiles": "O=C(/C=C/c1ccc(O)c(O)c1)O[C@@H]1CC(C(=O)O)=C[C@@H](O)[C@H]1O", "note": "[caffeoyl shikimate]", "values": [{"measurement": "HPLC-MS, appearance of caffeic acid", "setting": "PoptoCSE1", "result": "PoptoCSE1 and PoptoCSE2 have detectable activity against caffeoyl shikimate"}, {"measurement": "HPLC-MS, appearance of caffeic acid", "setting": "PoptoCSE2", "result": "PoptoCSE1 and PoptoCSE2 have detectable activity against caffeoyl shikimate"}]}
{"smiles": "CC(C)(COP(=O)(O)OP(=O)(O)OC[C@H]1O[C@@H](n2cnc3c(N)ncnc32)[C@H](O)[C@@H]1OP(=O)(O)O)[C@@H](O)C(=O)NCCC(=O)NCCSC(=O)/C=C/c1ccc(O)c(O)c1", "note": "[caffeoyl-CoA]", "values": [{"measurement": "preparative enzymatic synthesis of caffeoyl shikimate", "setting": "PoptoHCT6; co-substrate shikimic acid", "result": "caffeoyl shikimate using enzymatic reaction catalyzed by purified recombinant PoptoHCT6 with caffeoyl-CoA and shikimic acid"}]}
